{"source": "patent US20150133297A1", "about": "“NEW ANTIFUNGAL COMPOSITIONS” (DSM IP ASSETS B.V., priority 2012, published 2015)", "key": {"[1]": {"test_system": "Penicillium italicum", "experiment": "Treatment of oranges (Examples 6-9): wounded, inoculated, wound treated with antifungal composition", "type": "in vivo", "conditions": "for Observed antifungal activity O (%): oranges, 20° C.", "method": "During incubation, mould growth on the strawberries was assessed in a twofold manner: (i) the number of moulded strawberries per total of 12 strawberries was counted; and (ii) the antifungal activity (in %) of the individual and combined active ingredients was determined by calculating the reduction in mould growth observed on the strawberries treated with the antifungal composition in comparison to the mould growth on the strawberries treated with the control composition. The expected antifungal activity (E in %) of the combined antifungal composition comprising both active ingredients was calculated according to the Colby equation (Colby, 1967): […]\nEight fresh, organic oranges were used per treatment. Each orange was soaked in a 180 ppm hypochlorite solution for 10 minutes, then rinsed thoroughly with fresh tap water and dried. The peel of each disinfected orange was wounded once using a cork borer according to the method described by de Lapeyre de Bellaire and Dubois (1987). Subsequently, each wound was inoculated with 10 μl of a Penicillium italicum suspension containing 5×10^5 of spores/ml. After incubation for 3 hours at 20° C., each wound and the orange peel area of 1 cm around the wound was treated with in total 150 μl of a freshly prepared aqueous antifungal composition comprising either 500 ppm natamycin (DSM Food Specialties, Delft, The Netherlands), 500 ppm fenpropidin or both. Each antifungal composition also comprised 3.2% (w/w) beeswax, 0.8% (w/w) glycerol, 0.7% (w/w) polyoxyethylene sorbitan monostearate (Tween 60), 0.1% (w/w) polyoxyethylene sorbitan monooleate (Tween 80), 0.05% (w/w) methylhydroxyethyl-cellulose (MHEC), 0.03% (w/w) anti-foaming agent, 0.02% (w/w) xanthan gum, 0.02% (w/w) citric acid, 0.01% (w/w) lactic acid and 0.01% potassium sorbate. A composition without natamycin or fenpropidin was used as control. […] The treated oranges were incubated in a closed box in the dark at 20° C. and assessed on mould growth during a 28-day incubation period. The antifungal activity (in %) of the individual and combined active ingredients was determined by calculating the reduction in mould growth observed on the oranges treated with the antifungal composition in comparison to the mould growth on the oranges treated with the control composition according to the Colby method (Colby, 1967) as described in Example 5.\nThe experiment was conducted as described in Example 6, except for the fact that each wounded and inoculated orange was treated with 150 μl of a freshly prepared aqueous antifungal composition comprising either 250 ppm natamycin (DSM Food Specialties, Delft, The Netherlands), 250 ppm fenpropidin or both. During the 26-day incubation period, the treated oranges were assessed on mould growth according to the two methods described in Example 5.\nThe experiment was conducted as described in Example 6, except for the fact that each wounded and inoculated orange was treated with 150 μl of a freshly prepared aqueous antifungal composition comprising either 500 ppm natamycin (DSM Food Specialties, Delft, The Netherlands), 400 ppm spiroxamine or both. During the 26-day incubation period, the treated oranges were assessed on mould growth according to the two methods described in Example 5.\nThe experiment was conducted as described in Example 6, except for the fact that each wounded and inoculated orange was treated with 150 μl of a freshly prepared aqueous antifungal composition comprising either 250 ppm natamycin (DSM Food Specialties, Delft, The Netherlands), 200 ppm spiroxamine or both. During the 26-day incubation period, the treated oranges were assessed on mould growth according to the two methods described in Example 5."}, "[2]": {"test_system": "Botrytis cinerea", "experiment": "Treatment of strawberries (Example 5): wounded, inoculated, dipped in antifungal composition", "type": "in vivo", "conditions": "500 ppm natamycin, 600 ppm fenpropidin or both; for Observed antifungal activity O (%): strawberries, 20° C.", "method": "Twelve fresh, organic strawberries were used per treatment. Each strawberry was wounded with a 0.5 mm long cut and each wound was inoculated with 10 μl of a Botrytis cinerea suspension containing 1×10^5 of spores/ml. […] A composition without natamycin or fenpropidin was used as control. […] The treated strawberries were incubated in a closed box in the dark at 20° C. for 9 days. During incubation, mould growth on the strawberries was assessed in a twofold manner: […] The expected antifungal activity (E in %) of the combined antifungal composition comprising both active ingredients was calculated according to the Colby equation (Colby, 1967): […] wherein X and Y are the observed antifungal activities (in %) of the individual active ingredients X and Y, respectively."}}, "note": "Where “and” joins values, the source holds several entries; their conditions need not be identical. Identical values can stand only once."}
{"smiles": "CC(Cc1ccc(C(C)(C)C)cc1)CN1CCCCC1", "note": "(stereo not drawn) [Fenpropidin, fenpropidin]", "values": [{"measurement": "Number of moulded oranges/total number of 8 oranges", "setting": "[1]; Day 18, 20° C., 250 ppm natamycin, 250 ppm fenpropidin or both", "result": "6/8"}, {"measurement": "Number of moulded oranges/total number of 8 oranges", "setting": "[1]; Day 19, 20° C., 250 ppm natamycin, 250 ppm fenpropidin or both", "result": "6/8"}, {"measurement": "Number of moulded oranges/total number of 8 oranges", "setting": "[1]; Day 20, 20° C., 250 ppm natamycin, 250 ppm fenpropidin or both", "result": "7/8"}, {"measurement": "Number of moulded oranges/total number of 8 oranges", "setting": "[1]; Day 21-22, 20° C., 250 ppm natamycin, 250 ppm fenpropidin or both", "result": "7 and 7/8"}, {"measurement": "Number of moulded oranges/total number of 8 oranges", "setting": "[1]; Day 23-26, 20° C., 250 ppm natamycin, 250 ppm fenpropidin or both", "result": "7 and 7/8"}, {"measurement": "Observed antifungal activity O (%)", "setting": "[1]; day 18, 250 ppm natamycin, 250 ppm fenpropidin or both", "result": 59, "unit": "%"}, {"measurement": "Observed antifungal activity O (%)", "setting": "[1]; day 19, 250 ppm natamycin, 250 ppm fenpropidin or both", "result": 50, "unit": "%"}, {"measurement": "Observed antifungal activity O (%)", "setting": "[1]; day 20, 250 ppm natamycin, 250 ppm fenpropidin or both", "result": 43, "unit": "%"}, {"measurement": "Observed antifungal activity O (%)", "setting": "[1]; day 21, 250 ppm natamycin, 250 ppm fenpropidin or both", "result": 38, "unit": "%"}, {"measurement": "Observed antifungal activity O (%)", "setting": "[1]; day 22, 250 ppm natamycin, 250 ppm fenpropidin or both", "result": 30, "unit": "%"}, {"measurement": "Observed antifungal activity O (%)", "setting": "[1]; day 22, 500 ppm natamycin, 500 ppm fenpropidin or both", "result": 94, "unit": "%"}, {"measurement": "Observed antifungal activity O (%)", "setting": "[1]; day 23, 250 ppm natamycin, 250 ppm fenpropidin or both", "result": 16, "unit": "%"}, {"measurement": "Observed antifungal activity O (%)", "setting": "[1]; day 23, 500 ppm natamycin, 500 ppm fenpropidin or both", "result": 89, "unit": "%"}, {"measurement": "Observed antifungal activity O (%)", "setting": "[1]; day 25, 250 ppm natamycin, 250 ppm fenpropidin or both", "result": 4, "unit": "%"}, {"measurement": "Observed antifungal activity O (%)", "setting": "[1]; day 25, 500 ppm natamycin, 500 ppm fenpropidin or both", "result": 84, "unit": "%"}, {"measurement": "Observed antifungal activity O (%)", "setting": "[1]; day 26, 250 ppm natamycin, 250 ppm fenpropidin or both", "result": 0, "unit": "%"}, {"measurement": "Observed antifungal activity O (%)", "setting": "[1]; day 26, 500 ppm natamycin, 500 ppm fenpropidin or both", "result": 81, "unit": "%"}, {"measurement": "Observed antifungal activity O (%)", "setting": "[1]; day 27, 500 ppm natamycin, 500 ppm fenpropidin or both", "result": 80, "unit": "%"}, {"measurement": "Observed antifungal activity O (%)", "setting": "[1]; day 28, 500 ppm natamycin, 500 ppm fenpropidin or both", "result": 75, "unit": "%"}, {"measurement": "Number of moulded strawberries/total number of 12 strawberries", "setting": "[2]; Day 5, 20° C.", "result": "12 and 12/12"}, {"measurement": "Number of moulded strawberries/total number of 12 strawberries", "setting": "[2]; Day 6, 20° C.", "result": "12 and 12/12"}, {"measurement": "Observed antifungal activity O (%)", "setting": "[2]; day 4", "result": 0, "unit": "%"}, {"measurement": "Observed antifungal activity O (%)", "setting": "[2]; day 5", "result": 0, "unit": "%"}, {"measurement": "Observed antifungal activity O (%)", "setting": "[2]; day 6", "result": 0, "unit": "%"}, {"measurement": "Observed antifungal activity O (%)", "setting": "[2]; day 7", "result": 0, "unit": "%"}, {"measurement": "Observed antifungal activity O (%)", "setting": "[2]; day 8", "result": 0, "unit": "%"}, {"measurement": "Observed antifungal activity O (%)", "setting": "[2]; day 9", "result": 0, "unit": "%"}]}
